For 73 compounds, IC50 results are on record in US7671061B2, “Methods and compositions for treating pain” (Hydra Biosciences, Inc., priority 2005, dated 2010).

The experiment deals with T1, hTRPA1 (Homo sapiens, UniProt O75762, K186N).
T1 construct: expressed in transfected cells; host or cells: HEK293/TREx (Invitrogen), induced with tetracycline
T1 sequence (O75762 whole entry K186N): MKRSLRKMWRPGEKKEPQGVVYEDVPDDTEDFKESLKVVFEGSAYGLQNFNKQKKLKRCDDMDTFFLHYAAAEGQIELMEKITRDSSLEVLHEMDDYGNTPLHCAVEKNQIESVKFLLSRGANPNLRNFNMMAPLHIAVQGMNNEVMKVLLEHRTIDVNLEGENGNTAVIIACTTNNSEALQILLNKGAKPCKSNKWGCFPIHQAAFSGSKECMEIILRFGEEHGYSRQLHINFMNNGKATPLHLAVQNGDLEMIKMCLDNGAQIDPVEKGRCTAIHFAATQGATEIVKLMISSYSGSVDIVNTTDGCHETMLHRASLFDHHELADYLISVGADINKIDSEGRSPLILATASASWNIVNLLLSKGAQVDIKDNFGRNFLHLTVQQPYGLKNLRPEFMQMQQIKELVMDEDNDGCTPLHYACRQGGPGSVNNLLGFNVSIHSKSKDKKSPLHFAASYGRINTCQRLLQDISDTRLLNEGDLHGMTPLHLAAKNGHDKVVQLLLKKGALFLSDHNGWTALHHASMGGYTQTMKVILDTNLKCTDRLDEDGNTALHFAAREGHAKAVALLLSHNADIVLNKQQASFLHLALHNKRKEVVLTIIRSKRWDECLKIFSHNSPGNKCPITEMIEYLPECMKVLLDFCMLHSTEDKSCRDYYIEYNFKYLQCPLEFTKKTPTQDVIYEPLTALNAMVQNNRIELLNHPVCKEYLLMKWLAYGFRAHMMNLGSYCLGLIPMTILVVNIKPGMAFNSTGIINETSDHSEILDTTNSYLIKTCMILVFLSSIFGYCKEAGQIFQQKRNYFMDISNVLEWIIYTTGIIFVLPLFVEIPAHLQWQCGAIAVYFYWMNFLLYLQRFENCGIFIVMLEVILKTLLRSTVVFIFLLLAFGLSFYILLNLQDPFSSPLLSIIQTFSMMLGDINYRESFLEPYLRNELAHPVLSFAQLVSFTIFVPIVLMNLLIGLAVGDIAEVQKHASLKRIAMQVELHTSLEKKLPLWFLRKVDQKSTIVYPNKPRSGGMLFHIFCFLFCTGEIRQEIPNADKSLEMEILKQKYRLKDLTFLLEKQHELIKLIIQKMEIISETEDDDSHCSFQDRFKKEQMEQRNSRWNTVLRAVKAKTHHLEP
The experiment can be described thus: High throughput Ca2+ fluorescence (Fluo4) assay, AITC stimulation. It is filed as cell-based. Conditions: Table 1; read-out: hTRPA1 Fluo4 IC50. An excerpt: The assay depended on detection of the rise in intracellular Ca^2+ concentration ([Ca^2+]i) following channel activation in cells inducibly expressing the TRPA1 channel. Ca^2+ rise was quantified with the use of fluorescent Ca^2+ indicators that were loaded into cells and thereafter indicated the [Ca^2+]i. Ca^2+ influx followed activation of the TRPA1 channel. Compounds inhibiting the [Ca^2+]i rise were considered hits for further investigation.
These cells were maintained in the growth medium recommended by the manufacturer supplemented with 100 μg/ml hygromycin to promote retention of the TRPA1 construct. After growing to near confluency, cells were plated at a density of ˜25,000 cells/well in 384 well CellBind plates (Corning) in the presence of 1 μg/ml tetracycline, and allowed to grow for 20-30 hrs. A nearly confluent monolayer resulted. Cells were then loaded with Ca^2+ dye: Fura-2/AM or Fluo4/AM was added to the wells to a final concentration of 2 μM or 1 μM, respectively, and incubated for 80 min or 60 min, respectively, at room temperature. […] Frames were acquired at a rate of 0.2 Hz. During the assay, the plates were continuously […], with pipette mixing of wells following addition of each reagent. For the screening assay, 13 μl of a diluted stock (at 50 μM) was added to each well for 2 minutes following the collection of a short (4 frame) baseline. […] Data was collected for ˜3 minutes following addition of AITC, where the fluorescent intensity (for Fluo4) and the F340/F380 ratio (for Fura-2) were proportional to the [Ca^2+]i. Negative controls consisted of HEK293/TREx TRPA1 cells exposed to AITC, but no compound. […] These controls defined a screening window, and “hits” were defined as those compounds inhibiting the fluorescence response by at least 40%. IC50 values were determined for compounds defined as “hits.” The Fluo4 cell-based fluorescence assay was used to determine the intracellular Ca^2+ concentration in the presence of varying drug concentration. […] Compounds were tested in triplicate at all concentrations. Standard software was used to fit IC50 curves.
Turning to `CC1=C(C(=O)OC(C)(C)C)C(c2ccc(Br)cc2)NC(=O)N1` (stereo not shown), the IC50 (in general, the concentration needed to halve the response being measured) was > 10 µM.
Under `CC1=C(C(=O)OC(C)(C)C)C(c2cccc(Cl)c2)NC(=O)N1` (stereo not shown) stands > 10 µM; under `COC(=O)C1=C(C)NC(=S)NC1c1ccccc1OC(C)C` (stereo not shown), > 10 µM.
As for `CC1=C(C(=O)OC2CCCCCC2)C(c2cccc(C)c2)NC(=O)N1` (stereo not shown), the IC50 was > 10 µM.
With `CCC(C)OC(=O)C1=C(C)NC(=O)NC1c1ccc(F)c(Br)c1` (stereo not shown), the IC50 is > 10 µM.
Under `CC1=C(C(=O)OC(C)C)C(c2ccc(F)c(Br)c2)NC(=O)N1` (stereo not shown) stands > 10 µM; under `CCCOC(=O)C1=C(C)NC(=O)NC1c1ccccc1Br` (stereo not shown), > 10 µM.
Turning to `CCCC1=C(C(=O)OCC)C(c2ccc([N+](=O)[O-])cc2)NC(=O)N1C` (stereo not shown), the IC50 was > 10 µM.
For `COC(=O)C1=C(C)NC(=O)NC1c1ccc(F)c(Br)c1` (stereo not shown), the IC50 is > 10 µM.
For `CCCC1=C(C(=O)OCC)C(c2ccc(C(F)(F)F)cc2)NC(=O)N1C` (stereo not shown), the IC50 is > 10 µM.
Consider `CC1=C(C(=O)OC2CCCC2)C(c2ccccc2Br)NC(=O)N1` (stereo not shown), for which the IC50 is > 10 µM.
With `CC1=C(C(=O)OC(C)C)C(c2ccc(C(C)(C)C)cc2)NC(=O)N1` (stereo not shown), the IC50 was > 10 µM.
Turning to `CC1=C(C(=O)OC(C)C)C(c2c(Cl)cccc2Cl)NC(=O)N1` (stereo not shown), the IC50 was > 10 µM.
In the case of `CC1=C(C(=O)OC(C)C)C(c2c(F)cccc2Cl)NC(=O)N1` (stereo not shown), the IC50 is > 10 µM.
On to `COC(=O)C1=C(C)N(C)C(=O)NC1c1cccc(C)c1` (stereo not shown), for which the IC50 is > 10 µM.
For the compound `COC(=O)C1=C(C)N(C)C(=O)NC1c1cccc(Cl)c1Cl` (stereo not shown), the IC50 is > 10 µM.
Regarding `C=CCOC(=O)C1=C(C)NC(=O)NC1c1c(Cl)cccc1Cl` (stereo not shown), the IC50 was > 10 µM.
Regarding `C=CCOC(=O)C1=C(C)NC(=O)NC1c1ccc(C(C)(C)C)cc1` (stereo not shown), the IC50 is > 10 µM.
Consider `CC1=C(C(=O)OCc2ccccc2)C(c2ccc(C(C)C)cc2)NC(=O)N1` (stereo not shown), for which the IC50 was > 10 µM.
For `C=CCOC(=O)C1=C(C)NC(=O)NC1c1c(F)cccc1Cl` (stereo not shown), the IC50 is > 10 µM.
For the compound `CC1=C(C(=O)OCc2ccccc2)C(c2c(F)cccc2Cl)NC(=O)N1` (stereo not shown), the IC50 is > 10 µM.
`COC(=O)C1=C(C)NC(=S)NC1c1ccccc1C` (stereo not shown): the IC50 was ≥ 30 µM.
In the case of `CC1=C(C(=O)N(C)C)C(c2ccccc2)NC(=S)N1` (stereo not shown), the IC50 was > 10 µM.
In the case of `COc1cccc(C2NC(=S)NC(C)=C2C(=O)N(C)C)c1OC` (stereo not shown), the IC50 is > 10 µM.
As for `COc1cc(OC)c(C2NC(=S)NC(C)=C2C(=O)N(C)C)cc1Br` (stereo not shown), the IC50 was > 10 µM.
In the case of `COc1cc(Br)cc(C2NC(=S)NC(C)=C2C(=O)N(C)C)c1OC` (stereo not shown), the IC50 is > 10 µM.
For the compound `CC1=C(C(=O)N(C)C)C(c2c(F)cccc2Cl)NC(=S)N1` (stereo not shown), the IC50 is > 10 µM.
As for `COc1cc2c(cc1C1NC(=S)NC(C)=C1C(=O)N(C)C)CCCC2` (stereo not shown), the IC50 is > 10 µM.
`CC1=C(C(=O)N(C)C)C(c2ccccc2F)NC(=S)N1` (stereo not shown): the IC50 was > 10 µM.
`CC1=C(C(=O)N(C)C)C(c2ccc(C)cc2)NC(=S)N1` (stereo not shown): the IC50 was > 10 µM.
On to `CC1=C(C(=O)OCC(C)C)C(c2c(F)cccc2Cl)NC(=O)N1C` (stereo not shown), for which the IC50 was ≤ 10 µM.
As for `COCCOC(=O)C1=C(C)NC(=S)NC1c1ccc(C(C)C)cc1` (stereo not shown), the IC50 is > 10 µM.
For the compound `COC(=O)C1=C(C)N(C)C(=S)NC1c1ccccc1OC` (stereo not shown), the IC50 is > 10 µM.
For `CCN(CC)C(=O)C1=C(C)NC(=S)NC1c1ccccc1Cl` (stereo not shown), the IC50 was > 10 µM.
Consider `CCN(CC)C(=O)C1=C(C)NC(=S)NC1c1ccc(OC)cc1` (stereo not shown), for which the IC50 is > 10 µM.
For `CCN(CC)C(=O)C1=C(C)NC(=S)NC1c1cc(C)c(OC)cc1C` (stereo not shown), the IC50 was > 10 µM.
`CCN(CC)C(=O)C1=C(C)NC(=S)NC1c1cc(Br)cc(OC)c1OC` (stereo not shown): the IC50 is > 10 µM.
Under `CCN(CC)C(=O)C1=C(C)NC(=S)NC1c1ccc(OC)cc1OC` (stereo not shown) stands > 10 µM; under `CCN(CC)C(=O)C1=C(C)NC(=S)NC1c1ccc(C)cc1` (stereo not shown), > 10 µM.
For `CCN(CC)C(=O)C1=C(C)NC(=S)NC1c1cc(OC)ccc1OC` (stereo not shown), the IC50 is > 10 µM.
Take `COC(=O)C1=C(C)N(C)C(=S)NC1c1cccc(Cl)c1Cl` (stereo not shown): the IC50 is ≤ 5 µM.
For `COC(=O)C1=C(C)N(C)C(=O)NC1c1c(F)cccc1Cl` (stereo not shown), the IC50 is > 10 µM.
`CCN(CC)C(=O)C1=C(C)NC(=O)NC1c1c(F)cccc1Cl` (stereo not shown): the IC50 was > 10 µM.
Under `CCN(CC)C(=O)C1=C(C)NC(=S)NC1c1ccc(Br)cc1` (stereo not shown) stands > 10 µM; under `C=CCOC(=O)C1=C(C)NC(=S)NC1c1cccc(OC)c1` (stereo not shown), ≤ 10 µM; under `CCN1C(=O)NC(c2c(F)cccc2Cl)C(C(=O)OC)=C1C` (stereo not shown), > 10 µM.
With `C=CCOC(=O)C1=C(C)NC(=S)NC1c1ccccc1F` (stereo not shown), the half-inhibitory concentration (IC50) is > 10 µM.
Regarding `CCN(CC)C(=O)C1=C(C)NC(=S)NC1c1ccccc1F` (stereo not shown), the IC50 was > 10 µM.
On to `CSc1ccc(C2NC(=O)NC(C)=C2C(=O)OCc2ccccc2)cc1` (stereo not shown), for which the IC50 is > 10 µM.
Under `COC(=O)C1=C(C)N(C)C(=O)NC1c1ccccc1C` (stereo not shown) stands > 10 µM; under `COC(=O)C1=C(C)N(C)C(=O)NC1c1c(Cl)cccc1Cl` (stereo not shown), > 10 µM; under `CCOc1ccc(C2NC(=S)NC(C)=C2C(=O)OC(C)C)cc1` (stereo not shown), > 10 µM.
In the case of `CCOC(=O)C1=C(C)NC(=S)NC1c1cccc(OC2CCCC2)c1` (stereo not shown), the IC50 is ≤ 5 µM.
As for `CC1=C(C(=O)OC2CCCC2)C(c2ccc(C)c(Br)c2)NC(=O)N1` (stereo not shown), the IC50 is > 10 µM.
For `CCN1C(=O)NC(c2ccccc2Br)C(C(=O)OC)=C1C` (stereo not shown), the IC50 is > 10 µM.
Turning to `CCN1C(=O)NC(c2ccc(Cl)cc2Cl)C(C(=O)OC)=C1C` (stereo not shown), the IC50 was > 10 µM.
Turning to `CCOC(=O)C1=C(C)NC(=S)NC1c1ccccc1OC1CCCC1` (stereo not shown), the IC50 was > 10 µM.
Take `CCN1C(=O)NC(c2cc(C)ccc2C)C(C(=O)OC)=C1C` (stereo not shown): the IC50 was > 10 µM.
Take `CCOC(=O)C1=C(CN2CCCCC2)NC(=O)NC1c1cc(C)ccc1C` (stereo not shown): the IC50 is > 10 µM.
On to `CCOC(=O)C1=C(CN2CCC(C)CC2)NC(=O)NC1c1ccc(Cl)cc1` (stereo not shown), for which the IC50 is > 10 µM.
With `CCOC(=O)C1=C(CN2CCN(C)CC2)NC(=O)NC1c1ccc(Cl)cc1` (stereo not shown), the IC50 is > 10 µM.
As to `CCOC(=O)C1=C(CN2CCN(C)CC2)NC(=O)NC1c1cc(C)ccc1C` (stereo not shown), the IC50 was > 10 µM.
Turning to `CCOC(=O)C1=C(CN2CCc3ccccc32)NC(=O)NC1c1cc(C)ccc1C` (stereo not shown), the IC50 was > 10 µM.
For the compound `CCOC(=O)C1=C(CN2CCc3ccccc32)NC(=O)NC1c1cccc([N+](=O)[O-])c1` (stereo not shown), the IC50 was > 10 µM.
On to `CCOC(=O)C1=C(C)NC(=S)NC1c1ccc(C)cc1C` (stereo not shown), for which the concentration for half-maximal inhibition (IC50) is > 10 µM.
Under `COC(=O)C1=C(CN2CCN(C)CC2)NC(=O)NC1c1cc(C)ccc1C` (stereo not shown) stands > 10 µM; under `CCOC(=O)C1=C(CN2CC(C)CC(C)C2)NC(=O)NC1c1ccc(Cl)cc1` (stereo not shown), > 10 µM; under `CCOC(=O)C1=C(CN2CCc3ccccc32)NC(=O)NC1c1ccc(Cl)cc1` (stereo not shown), ≤ 10 µM.
For `COC(=O)C1=C(CN2CCCCC2)NC(=O)NC1c1ccc(C)cc1C` (stereo not shown), the IC50 is > 10 µM.
As to `COC(=O)C1=C(CN2CCCC2)NC(=O)NC1c1cc(C)ccc1C` (stereo not shown), the IC50 is > 10 µM.
With `CCOC(=O)C1=C(C(C)C)NC(=O)NC1c1ccc(F)cc1` (stereo not shown), the IC50 was > 10 µM.
Consider `COC(=O)C1=C(CN2CCc3ccccc32)NC(=O)NC1c1cc(C)ccc1C` (stereo not shown), for which the IC50 is > 10 µM.
Under `CCN(CC)C(=O)C1=C(C)NC(=O)NC1c1ccc(OC)c(Cl)c1` (stereo not shown) stands > 10 µM.
